Source: patent US20230137092A1, “Composition and Method for the Treatment and Prevention of Cardiac, Pulmonary, Dermal, and Renal Fibrosis” (EMERALD HEALTH PHARMACEUTICALS INC., priority 2020, published 2023)

How the values were obtained:
[1] = tested on: Ang II-induced renal fibrosis; assay: Ang II-induced renal fibrosis, preventive model, Sirius Red; assay type: in vivo, mouse; details: Ang II 1.0 mg kg^- min^- two weeks, 20 mg/kg oral gavage
Procedure: Ang II is the main peptide of the renin angiotensin system and a renal growth factor, inducing hyperplasia/hypertrophy depending on the cell type, and it induces renal fibrosis. Renal fibrosis was induced in mice by infusion of Ang II (1.0 mg kg^− min^−) for two weeks. The treatment with the compound of Formula (VIII) by oral gavage was the same as describe in Example 2. After two weeks of treatment, the mice were sacrificed under ether anesthesia. Kidney samples were collected and fixed in 4% paraformaldehyde and embedded in paraffin. The paraffin sections (5 μm) were stained with Sirius Red for evaluation of fibrosis. Subcutaneous Ang II infusion induced a significant increase of collagen content and in the mice treated with compound, the induction of fibrosis in the kidney is prevented (FIG. 10).

[2] = tested on: Ang II-induced aortic fibrosis; assay: Ang II preventive model: aorta sections, picrosirius red; assay type: in vivo, mouse; details: Ang II two weeks, oral treatment
Procedure: Ang II causes myocardial fibrosis in a short period of time (Sopel M et al., 2011, Lab. Invest., 91:565-578) characterized by collagen accumulation and after 14 days of Ang II infusion (Sigusch H H et al., 1996, Cardiovascular Research, 31:546-554). […] Subcutaneous infusion of Ang II using ALZET® osmotic pumps was used to study compound preventive effects. ALZET® osmotic minipumps (Model #2004, Charles Rives, Barcelona, Spain) delivering of Ang II (1.0 mg kg^− min^−) (Sigma-Aldrich, Madrid, Spain) for two weeks. Compound treatment was daily administered in parallel, one day before of the implantation of the subcutaneous pump, beneath the mid scapular loose skin and consisted of daily oral gavage of compound (20 mg/kg) or vehicle (Corn Oil/Maisine CC, 1/1). Mice were acclimated to manipulators for a week previously to the experiments in order to reduce stress and allow the detection of subtle changes in behavior by researchers. […] Neither piloerection nor hunched appearances were appreciated during the experimental procedures. […]
Mice treated with Ang II presented an increase in the thickness of aortic media layer by collagen accumulation. […] Three-four random fields of each heart were photographed by standard brightfield microscopy and digitalized using a Leica DFC420c camera and analyzed using Fiji software (rsb.info.nih.gov/ij/).

[3] = tested on: Ang II-induced renal fibrosis; assay: Ang II therapeutic model: renal fibrosis, Sirius red; assay type: in vivo, mouse; details: Ang II four weeks, 20 mg/kg oral last two weeks, #p<0.05 versus Ang II group
Procedure: For the therapeutic model, infusion of Ang II for four weeks and the compound of Formula (VIII) (20 mg/kg) was administrated after two weeks of pump implantation. Subcutaneous infusion of Ang II using ALZET osmotic minipumps was used to study the preventive effects of the compound ALZET® osmotic minipumps (Model #2004, Charles Rives, Barcelona, Spain) delivering of Ang II (500 ng kg^−1 min^−1) (Sigma-Aldrich, Madrid, Spain) for four weeks. Compound treatment was daily administered in parallel, two weeks after the implantation of the subcutaneous pump, beneath the midscapular loose skin and consisted of daily oral gavage of compound of Formula (VIII) (20 mg/kg) or vehicle (Corn Oil/Maisine CC, 1/1). Mice were acclimated to manipulators for a week previously to the experiments in order to reduce stress and allow the detection of subtle changes in behavior by researchers. […] Neither piloerection nor hunched appearances were appreciated during the experimental procedures. Mice were sacrificed by cervical dislocation and the heart, aorta, kidney, and lung were removed and processed for histological examination or were frozen for further analysis.

NFAT = assay: Gal4-NFAT / Gal4-Luc reporter assay in hICF; assay type: cell-based, human; details: hICF transfected with Gal4-Luc and Gal4-NFAT, stimulated 6 hours
Procedure: hICF cells were transiently transfected for 24 hours with the Gal4-Luc reporter plasmid (which includes five Gal4 DNA binding sites fused to the luciferase gene) and the Gal4-NFAT1-415plasmid for 24 hours using Roti-Fect (Carl Roth GmbH & Co. KG, Karlsruhe, Germany). Then cells were stimulated for 6 hours and luciferase activity in the cell lysates was measured. The specific transactivation expressed as a percentage of activation relative to control. Compound of Formula (VIII) inhibited Ang II-induced NFAT activation (FIG. 16B).

[4] = tested on: human immortalized cardiac fibroblasts (hICF); assay: Fibroblast differentiation into myofibroblasts: α-SMA expression in hICF; assay type: cell-based; details: hICF treated with TGF-β or Ang II; pretreatment with compound
Text: The profibrotic activity of Ang II on cardiac fibroblasts in vitro and in vivo has been extensively documented (H. H. Sigusch et al., 1996, Cardiovasc Res, 31:546-554). To study myofibroblast differentiation in vitro, immortalized cardiac fibroblasts (hICF) were stained with for α-SMA expression, a specific marker for myofibroblasts differentiation. Immortalized primary human cardiac fibroblasts (hICF) with SV40 Large T antigen were obtained from Innoprot SL (Derio, Spain) and cultured in low passages (<5 passages). The cells were maintained in a humidified atmosphere at 37° C. containing 5% CO2, 10% fetal bovine serum (FBS) and 1% (v/v) penicillin/streptomycin in Fibroblast Medium-2 (P60108-2, Innoprot, Derio, Spain). Ang II was purchased from Sigma-Aldrich Co (A9525, Sigma, Madrid, Spain) and TGFb1 (Transforming Growth Factor-b)-1 (10 ng/mL) was obtained from ImmunoTools GmbH (Friesoythe, Germany). Both TGF-β and Ang II induced α-SMA protein expression in cultured hICF and pretreatment with compound of Formula (VIII) decreased α-SMA expression. The differentiation to myofibroblast was associated with morphological changes of cellular hypertrophy.

C=C(C)C1CCC(C)=C[C@H]1C1=C(O)C(=O)C(CCCCC)=C(NCc2ccccc2)C1=O (some centres unmarked) [Formula (VIII)]
induction of fibrosis in the kidney (collagen content) [1]: prevented | thickness of aortic media layer by collagen accumulation [2]: significantly alleviated | renal fibrosis (collagen accumulation in kidney) [3]: reduced | Ang II-induced NFAT activation (luciferase) (NFAT): inhibited | α-SMA expression [4]: decreased
